The record followed here is PubChem BioAssay AID206 (DTP/NCI, 2004).

Values joined by “and” are separate entries in the source; they are usually repeats but may differ in a detail not shown here. Identical values can stand only once. Results filed as inconclusive are left out.

This experiment has as its system nude mice, HT29 intrarenal xenograft, tumor weight T/C. Put plainly: NCI In Vivo Anticancer Drug Screen. Data for tumor model HT29;CX-1 Human Adenocarcinoma (MER+) (intrarenal inoculation) in NU/NU Swiss (nude) mice. The conditions noted are these: endpoint: mean tumor weight change, higher = larger tumour. The method in brief: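 Endpoint measured as tumor size or survival; ratio reported is treated group over vehicle controls.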

Where [1] appears, read: dose: 50.0 mg/kg/injection, schedule: Q01DX010 (sc), vehicle: saline.
Where [2] appears, read: dose: 100.0 mg/kg/injection, schedule: Q01DX010 (sc), vehicle: saline.
Setting [3] is: dose: 25.0 mg/kg/injection, schedule: Q01DX010 (sc), vehicle: saline.
[4] abbreviates: dose: 200.0 mg/kg/injection, schedule: Q04DX004 (sc), vehicle: saline with Tween-80.
Where [5] appears, read: dose: 75.0 mg/kg/injection, schedule: Q04DX004 (sc), vehicle: saline with Tween-80.
Where [6] appears, read: dose: 150.0 mg/kg/injection, schedule: Q04DX004 (sc), vehicle: saline with Tween-80.
[7] abbreviates: dose: 300.0 mg/kg/injection, schedule: Q04DX004 (sc), vehicle: saline with Tween-80.
Setting [8] is: dose: 50.0 mg/kg/injection, schedule: Q04DX004 (sc), vehicle: saline with Tween-80.
Setting [9] is: dose: 1200.0 mg/kg/injection, schedule: Q04DX004 (sc), vehicle: saline with Tween-80.
Setting [10] is: dose: 75.0 mg/kg/injection, schedule: Q04DX004 (sc), vehicle: saline.
Where [11] appears, read: dose: 150.0 mg/kg/injection, schedule: Q04DX004 (sc), vehicle: saline.

In the case of `N#C[C@H](OC1OC(COC2OC(CO)C(O)C(O)C2O)C(O)C(O)C1O)c1ccccc1` (stereo partly specified), the T/C by setting is: (dose: 450.0 mg/kg/injection, schedule: Q04DX004 (sc), vehicle: suspension in saline) 101 % of control; (dose: 900.0 mg/kg/injection, schedule: Q04DX004 (sc), vehicle: suspension in saline) 67 % of control; (dose: 1800.0 mg/kg/injection, schedule: Q04DX004 (sc), vehicle: suspension in saline) 56 % of control; (dose: 3600.0 mg/kg/injection, schedule: Q04DX004 (sc), vehicle: suspension in saline) 69 % of control.

Turning to `CCCCC1CCCCCCc2[nH]c(/C=C3\N=C(c4ccc[nH]4)C=C3OC)cc21` (stereo unspecified), the T/C (dose: 16.0 mg/kg/injection, schedule: Q04DX004 (sc), vehicle: saline with Tween-80) was 200 % of control.

For the compound `CC1CN1P1(N2CC2C)=NP(N2CC2C)(N2CC2C)=NP(N2CC2C)(N2CC2C)=N1` (stereo unspecified), the T/C by setting is: under setting [1], 79 % of control; under setting [2], 101 % of control.

Consider `[N-]=[N+]=CC(=O)CCC(N)C(=O)O` (stereo unspecified), for which the T/C is 73 % of control (dose: 0.1 mg/kg/injection, schedule: Q01DX010 (sc), vehicle: saline) and 43 % of control (dose: 0.2 mg/kg/injection, schedule: Q01DX010 (sc), vehicle: saline).

On to `CN(CO)c1nc(N(C)CO)nc(N(C)CO)n1`, for which the T/C reads like this: under setting [3], 65 % of control and 81 % of control; under setting [2], 17 % of control.

With `C/C(=N\NC(N)=O)c1cccc(/C(C)=N/NC(N)=O)n1`, the T/C under setting [4] is 106 % of control and the T/C (dose: 400.0 mg/kg/injection, schedule: Q04DX004 (sc), vehicle: saline with Tween-80) was 108 % of control.

As to `CC(=O)CC(C)=O.CC(=O)CC(C)=O.O=N[O-].O=N[O-].[Co]`, the T/C by setting is: under setting [5], 52 % of control; under setting [6], 92 % of control; under setting [7], 48 % of control.

Regarding `CN=C(N)N/N=C(\c1ccccc1)c1ccc(Br)cc1`, the T/C under setting [8] is 90 % of control and 92 % of control and 104 % of control.

`O=[N+]([O-])c1ccc(-n2[nH]nnc2=S)cc1`: the T/C was 94 % of control (dose: 100.0 mg/kg/injection, schedule: Q04DX004 (sc), vehicle: Klucel (hydroxypropylcellulose) (HPC)); 92 % of control (dose: 200.0 mg/kg/injection, schedule: Q04DX004 (sc), vehicle: Klucel (hydroxypropylcellulose) (HPC)); 96 % of control (dose: 400.0 mg/kg/injection, schedule: Q04DX004 (sc), vehicle: Klucel (hydroxypropylcellulose) (HPC)); 80 % of control (dose: 800.0 mg/kg/injection, schedule: Q04DX004 (sc), vehicle: Klucel (hydroxypropylcellulose) (HPC)).

As to `O=C1c2cccc3cc([N+](=O)[O-])cc(c23)C(=O)N1CCN1CCCC1`, the T/C was 110 % of control (dose: 18.0 mg/kg/injection, schedule: Q04DX004 (sc), vehicle: saline with Tween-80) and 115 % of control (dose: 36.0 mg/kg/injection, schedule: Q04DX004 (sc), vehicle: saline with Tween-80).

Consider `CN1c2c(nc(N)[nH]c2=O)NCC1CCNc1ccc(C(=O)NC(CCC(=O)O)C(=O)O)cc1` (stereo unspecified), for which the T/C was 33 % of control (dose: 400.0 mg/kg/injection, schedule: Q01DX010 (sc), vehicle: saline) and 51 % of control (dose: 800.0 mg/kg/injection, schedule: Q01DX010 (sc), vehicle: saline).

With `O=C1CN(Cc2ccc3c(c2)OCO3)NO1`, the T/C reads like this: under setting [6], 92 % of control; under setting [7], 103 % of control.

For `CCN1/C(=C/C=C/C=C\C=C\c2sc3ccc4ccccc4c3[n+]2CC)Sc2ccc3ccccc3c21`, the T/C was 85 % of control (dose: 25.0 mg/kg/injection, schedule: Q04DX004 (sc), vehicle: saline with Tween-80); 54 % of control under setting [8]; 123 % of control (dose: 100.0 mg/kg/injection, schedule: Q04DX004 (sc), vehicle: saline with Tween-80); 107 % of control under setting [4].

With `[N-]=[N+]=C1N=CN=C1c1ncn[nH]1`, the T/C is 73 % of control (dose: 12.5 mg/kg/injection, schedule: Q01DX010 (sc), vehicle: Klucel (hydroxypropylcellulose) (HPC)) and 41 % of control (dose: 25.0 mg/kg/injection, schedule: Q01DX010 (sc), vehicle: Klucel (hydroxypropylcellulose) (HPC)).

For `CSc1ncnc2c1ncn2C1OC(CO)C(O)C1O` (stereo unspecified), the T/C (dose: 37.5 mg/kg/injection, schedule: Q04DX004 (sc), vehicle: saline + alcohol) was 74 % of control and 77 % of control and 80 % of control; the T/C (dose: 125.0 mg/kg/injection, schedule: Q04DX004 (sc), vehicle: saline + alcohol) was 154 % of control; the T/C (dose: 175.0 mg/kg/injection, schedule: Q04DX004 (sc), vehicle: saline + alcohol) was 65 % of control.

Consider `CCC1(O)CC2CN(CCc3c([nH]c4ccccc34)C(C(=O)OC)(c3cc4c(cc3OC)N(C)C3C(O)(C(=O)NCCSSCCNC(=O)C5(O)C(O)C6(CC)C=CCN7CCC8(c9cc(C%10(C(=O)OC)CC%11CN(CCc%12c%10[nH]c%10ccccc%12%10)CC(O)(CC)C%11)c(OC)cc9N(C)C58)C76)C(O)C5(CC)C=CCN6CCC43C65)C2)C1` (stereo unspecified), for which the T/C reads like this: (dose: 0.38 mg/kg/injection, schedule: Q04DX004 (sc), vehicle: suspension in saline) 85 % of control; (dose: 0.75 mg/kg/injection, schedule: Q04DX004 (sc), vehicle: saline) 39 % of control; (dose: 0.75 mg/kg/injection, schedule: Q04DX004 (sc), vehicle: suspension in saline) 84 % of control; (dose: 1.5 mg/kg/injection, schedule: Q04DX004 (sc), vehicle: saline) 22 % of control and 29 % of control; (dose: 1.5 mg/kg/injection, schedule: Q04DX004 (sc), vehicle: suspension in saline) 44 % of control; (dose: 3.0 mg/kg/injection, schedule: Q04DX004 (sc), vehicle: saline) -5 % of control. The T/C is 55 % of control (dose: 3.0 mg/kg/injection, schedule: Q04DX004 (sc), vehicle: suspension in saline) and 51 % of control (dose: 6.0 mg/kg/injection, schedule: Q04DX004 (sc), vehicle: suspension in saline).

With `Cc1c2cc(Cl)c3ccccc3c2c[n+]2ccccc12`, the T/C is 101 % of control under setting [7]; 82 % of control (dose: 600.0 mg/kg/injection, schedule: Q04DX004 (sc), vehicle: saline with Tween-80); 103 % of control under setting [9].

`O=C(CC(=O)C(F)(F)F)c1csc2ccccc12`: the T/C is, setting by setting: (dose: 150.0 mg/kg/injection, schedule: Q04DX004 (sc), vehicle: Klucel (hydroxypropylcellulose) (HPC)) 116 % of control; (dose: 300.0 mg/kg/injection, schedule: Q04DX004 (sc), vehicle: Klucel (hydroxypropylcellulose) (HPC)) 73 % of control; (dose: 600.0 mg/kg/injection, schedule: Q04DX004 (sc), vehicle: Klucel (hydroxypropylcellulose) (HPC)) 87 % of control.

On to `OCC1OC(n2cnc3c(=S)nc[nH]c32)C(O)C1O` (stereo unspecified), for which the T/C runs as follows: under setting [3], 54 % of control; under setting [1], 77 % of control; under setting [2], 108 % of control.

For `S=c1[nH]cc2cnccn12`, the T/C was 97 % of control (dose: 450.0 mg/kg/injection, schedule: Q04DX004 (sc), vehicle: saline with Tween-80); 107 % of control (dose: 900.0 mg/kg/injection, schedule: Q04DX004 (sc), vehicle: saline with Tween-80); 117 % of control (dose: 1800.0 mg/kg/injection, schedule: Q04DX004 (sc), vehicle: saline with Tween-80).

As to `CCCCCC1c2cc(O)ccc2OC1N1CCOCC1` (stereo unspecified), the T/C under setting [5] was 29 % of control; the T/C under setting [6] was 34 % of control; the T/C under setting [9] was 57 % of control; the T/C (dose: 2400.0 mg/kg/injection, schedule: Q04DX004 (sc), vehicle: saline with Tween-80) is 15 % of control.

With `[Cl][Mn][Cl]`, the T/C was 182 % of control (dose: 18.75 mg/kg/injection, schedule: Q04DX004 (sc), vehicle: saline); 171 % of control under setting [10]; 121 % of control under setting [11].

Turning to `C1CNCOC1`, the T/C under setting [10] was 123 % of control; the T/C under setting [11] is 158 % of control; the T/C (dose: 300.0 mg/kg/injection, schedule: Q04DX004 (sc), vehicle: saline) is 91 % of control; the T/C (dose: 600.0 mg/kg/injection, schedule: Q04DX004 (sc), vehicle: saline) was 75 % of control.

For the compound `CCOC(=O)CNC(=O)Sc1ccc(C(C)(C)C)cc1`, the T/C is, setting by setting: (dose: 300.0 mg/kg/injection, schedule: Q04DX003 (sc), vehicle: Klucel (hydroxypropylcellulose) (HPC)) 98 % of control; (dose: 600.0 mg/kg/injection, schedule: Q04DX003 (sc), vehicle: Klucel (hydroxypropylcellulose) (HPC)) 113 % of control; (dose: 1200.0 mg/kg/injection, schedule: Q04DX003 (sc), vehicle: Klucel (hydroxypropylcellulose) (HPC)) 44 % of control; (dose: 2400.0 mg/kg/injection, schedule: Q04DX003 (sc), vehicle: Klucel (hydroxypropylcellulose) (HPC)) 103 % of control.
